This passage reports T/C results from PubChem BioAssay AID330 (DTP/NCI, 2004).

In this assay the test system is P388 leukemia ip, CD2F1 mice, survival T/C. Description: NCI In Vivo Anticancer Drug Screen. Data for tumor model P388 Leukemia (intraperitoneal) in CD2F1 (CDF1) mice. Conditions: endpoint: median survival time, higher = longer survival. An outline of the steps: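 Mice carrying the transplanted tumor received test compound or vehicle. Survival was recorded in each group, and the value is the treated-group measurement divided by that of the vehicle-treated control group.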

[1] abbreviates: dose: 6.25 mg/kg/injection, schedule: Q01DX009 (ip), vehicle: saline.
Setting [2] is: dose: 12.5 mg/kg/injection, schedule: Q01DX009 (ip), vehicle: saline.
[3] abbreviates: dose: 100.0 mg/kg/injection, schedule: Q04DX002 (ip), vehicle: saline with Tween-80.
Setting [4] is: dose: 50.0 mg/kg/injection, schedule: Q01DX009 (ip), vehicle: saline.
[5] abbreviates: dose: 12.5 mg/kg/injection, schedule: Q01DX009 (ip), vehicle: saline with Tween-80.
The mark [6] stands for this setting: dose: 25.0 mg/kg/injection, schedule: Q01DX009 (ip), vehicle: saline with Tween-80.
Setting [7] is: dose: 50.0 mg/kg/injection, schedule: Q01DX009 (ip), vehicle: saline with Tween-80.
Where [8] appears, read: dose: 25.0 mg/kg/injection, schedule: Q04DX002 (ip), vehicle: saline with Tween-80.
[9] abbreviates: dose: 50.0 mg/kg/injection, schedule: Q04DX002 (ip), vehicle: saline with Tween-80.
[10] abbreviates: dose: 200.0 mg/kg/injection, schedule: Q04DX002 (ip), vehicle: saline with Tween-80.
Setting [11] is: dose: 400.0 mg/kg/injection, schedule: Q04DX002 (ip), vehicle: saline with Tween-80.
Where [12] appears, read: dose: 60.0 mg/kg/injection, schedule: Q01DX005 (ip), vehicle: saline with Tween-80.
The mark [13] stands for this setting: dose: 120.0 mg/kg/injection, schedule: Q01DX005 (ip), vehicle: saline with Tween-80.
[14] abbreviates: dose: 240.0 mg/kg/injection, schedule: Q01DX005 (ip), vehicle: saline with Tween-80.
Setting [15] is: dose: 100.0 mg/kg/injection, schedule: Q01DX009 (ip), vehicle: saline with Tween-80.
[16] abbreviates: dose: 200.0 mg/kg/injection, schedule: Q01DX009 (ip), vehicle: saline with Tween-80.

Values joined by “and” are separate entries in the source; they are usually repeats but may differ in a detail not shown here. Equal entries are not always repeated. Inconclusive results and toxic doses are left out.

As for `COC1C(O)=C2C(=O)OC(C)(O)/C=C/C=C\C=C/C=C/C(c3ccccc3)NC(=O)/C=C/C=C/C=C/C=C/C2(C)C1O` (stereo not given), under “dose: 12.5 mg/kg/injection, schedule: Q01DX009 (ip), vehicle: Klucel (hydroxypropylcellulose) (HPC)”, the T/C is 103 % of control and 86 % of control.

Take `C=C(C)c1nc2c(=O)nc(N)nc-2n(O)c1C`: the T/C reads like this: (dose: 37.5 mg/kg/injection, schedule: Q01DX009 (ip), vehicle: saline with Tween-80) 99 % of control; (dose: 150.0 mg/kg/injection, schedule: Q01DX009 (ip), vehicle: saline with Tween-80) 108 % of control.

In the case of `CCN(CC)CCN(CC)CC.O.[Cu+2].[O-][Cl+3]([O-])([O-])O`, the T/C by setting is: (dose: 3.12 mg/kg/injection, schedule: Q01DX009 (ip), vehicle: saline) 112 % of control; under setting [1], 100 % of control; under setting [2], 114 % of control.

Regarding `C/C(=N\N=C(\N)N1CCOCC1)c1ccc2c(c1)Cc1ccccc1-2`, the T/C under setting [3] is 101 % of control.

Regarding `CCOC(C)(OCC)N(C)C` (tested in a mixture with another compound), the T/C by setting is: (dose: 35.5 mg/kg/injection, schedule: Q01DX005 (ip), vehicle: saline with Tween-80) 101 % of control; (dose: 71.0 mg/kg/injection, schedule: Q01DX005 (ip), vehicle: saline with Tween-80) 102 % of control; (dose: 142.0 mg/kg/injection, schedule: Q01DX005 (ip), vehicle: saline with Tween-80) 118 % of control.

For `C[n+]1cccc(C(=O)OCC(C)(C)N(Cl)Cl)c1`, the T/C under setting [4] is 109 % of control.

Take `NCCSCCN`: the T/C under setting [4] is 100 % of control; the T/C (dose: 100.0 mg/kg/injection, schedule: Q01DX009 (ip), vehicle: saline) was 99 % of control; the T/C (dose: 100.0 mg/kg/injection, schedule: Q03DX003 (ip), vehicle: saline) is 102 % of control; the T/C (dose: 200.0 mg/kg/injection, schedule: Q01DX009 (ip), vehicle: saline) is 105 % of control; the T/C (dose: 200.0 mg/kg/injection, schedule: Q03DX003 (ip), vehicle: saline) is 105 % of control; the T/C (dose: 400.0 mg/kg/injection, schedule: Q03DX003 (ip), vehicle: saline) is 92 % of control.

Turning to `CCC(=O)[O][Sn]([CH3])([CH3])[O][Sn]([CH3])([CH3])[O]C(=O)CC`, the T/C by setting is: (dose: 6.25 mg/kg/injection, schedule: Q01DX005 (ip), vehicle: saline) 117 % of control; (dose: 12.5 mg/kg/injection, schedule: Q01DX005 (ip), vehicle: saline) 117 % of control and 118 % of control; (dose: 25.0 mg/kg/injection, schedule: Q01DX005 (ip), vehicle: saline) 120 % of control.

Consider `CC1(C)CC(N)=CC(=S)N1`, for which the T/C is 92 % of control under setting [5], 97 % of control under setting [6] and 101 % of control under setting [7].

`NC(=Nc1ccc(Cl)cc1)NN=C(c1ccc(Cl)cc1)c1ccc(Cl)cc1`: the T/C by setting is: under setting [8], 104 % of control; under setting [9], 101 % of control; under setting [3], 102 % of control; under setting [10], 100 % of control; under setting [11], 113 % of control.

For the compound `O=C(C[n+]1ccc2ccccc2c1)c1ccccc1`, the T/C under setting [1] was 111 % of control; the T/C under setting [5] is 113 % of control; the T/C under setting [2] is 108 % of control; the T/C under setting [6] was 104 % of control; the T/C (dose: 25.0 mg/kg/injection, schedule: Q01DX009 (ip), vehicle: saline) is 98 % of control; the T/C under setting [7] is 104 % of control. In addition, the T/C under setting [4] is 110 % of control.

As for `COc1ccc2c(c1)C[N+](C)(CCc1ccccc1)[B-]O2` (stereo not given), the T/C is, setting by setting: (dose: 50.0 mg/kg/injection, schedule: Q01DX005 (ip), vehicle: saline + Tween-80 + alcohol) 91 % of control; (dose: 100.0 mg/kg/injection, schedule: Q01DX005 (ip), vehicle: saline + Tween-80 + alcohol) 93 % of control.

Consider `NC(=O)Nc1ccc(/C=C\c2ccnc3ccccc23)cc1`, for which the T/C (dose: 25.0 mg/kg/injection, schedule: Q04DX003 (ip), vehicle: saline with Tween-80) is 96 % of control; the T/C (dose: 50.0 mg/kg/injection, schedule: Q04DX003 (ip), vehicle: saline with Tween-80) was 93 % of control; the T/C (dose: 100.0 mg/kg/injection, schedule: Q04DX003 (ip), vehicle: saline with Tween-80) was 89 % of control.

`COc1ccccc1/C(=N/[N+](C)(C)C)C(C)C`: the T/C (dose: 6.25 mg/kg/injection, schedule: Q04DX002 (ip), vehicle: saline) is 100 % of control; the T/C (dose: 12.5 mg/kg/injection, schedule: Q04DX002 (ip), vehicle: saline) was 100 % of control; the T/C (dose: 25.0 mg/kg/injection, schedule: Q04DX002 (ip), vehicle: saline) was 93 % of control.

Regarding `NC(=O)N(c1ccccc1)c1ccccn1`, the T/C was 97 % of control under setting [12], 97 % of control under setting [13] and 94 % of control under setting [14].

Take `O=C(NC(O)C(=O)O)c1ccc(Cl)cc1` (stereo not given): the T/C under setting [12] was 97 % of control, the T/C under setting [13] was 95 % of control and the T/C under setting [14] was 97 % of control.

With `Cc1ccc(C(=O)C(C#N)=Nc2ccc(N(C)C)cc2)cc1`, the T/C runs as follows: (dose: 12.5 mg/kg/injection, schedule: Q01DX005 (ip), vehicle: Klucel (hydroxypropylcellulose) (HPC)) 92 % of control; (dose: 50.0 mg/kg/injection, schedule: Q01DX005 (ip), vehicle: Klucel (hydroxypropylcellulose) (HPC)) 87 % of control and 91 % of control; (dose: 100.0 mg/kg/injection, schedule: Q01DX005 (ip), vehicle: Klucel (hydroxypropylcellulose) (HPC)) 92 % of control; (dose: 200.0 mg/kg/injection, schedule: Q01DX005 (ip), vehicle: Klucel (hydroxypropylcellulose) (HPC)) 99 % of control.

With `[Cl][Pt+2][Cl].[NH-]C1CCC1.[NH2-]`, the T/C was 155 % of control and 167 % of control (dose: 1.5 mg/kg/injection, schedule: Q01DX005 (ip), vehicle: saline); 155 % of control and 189 % of control and 190 % of control (dose: 3.0 mg/kg/injection, schedule: Q01DX005 (ip), vehicle: saline); 214 % of control (dose: 12.0 mg/kg/injection, schedule: Q01DX005 (ip), vehicle: saline).

`c1ccc(C2(N3CCOCC3)CSC2)cc1`: the T/C by setting is: under setting [3], 95 % of control; under setting [10], 98 % of control; under setting [11], 98 % of control.

As for `O=C(CCl)N1c2ccc3ccccc3c2Sc2ccc3ccccc3c21`, the T/C is 96 % of control (dose: 6.25 mg/kg/injection, schedule: Q01DX005 (ip), vehicle: saline with Tween-80); 101 % of control (dose: 12.5 mg/kg/injection, schedule: Q01DX005 (ip), vehicle: saline with Tween-80); 95 % of control (dose: 25.0 mg/kg/injection, schedule: Q01DX005 (ip), vehicle: saline with Tween-80); 98 % of control (dose: 50.0 mg/kg/injection, schedule: Q01DX005 (ip), vehicle: saline with Tween-80); 97 % of control (dose: 100.0 mg/kg/injection, schedule: Q01DX005 (ip), vehicle: saline with Tween-80); 105 % of control (dose: 200.0 mg/kg/injection, schedule: Q01DX005 (ip), vehicle: saline with Tween-80).

On to `COc1ccc(-n2c(C)nc3ccccc3c2=O)cc1CN(CCCl)CCCl`, for which the T/C is 97 % of control under setting [8], 109 % of control under setting [9] and 100 % of control under setting [3].

For `CC(C)(Oc1ccc(C(=O)c2ccc(Cl)c(Cl)c2)cc1)C(=O)O`, the T/C under setting [7] was 94 % of control, the T/C under setting [15] is 102 % of control and the T/C under setting [16] is 107 % of control.

As for `CCCCCC(CN1CCOCC1)C(=O)/C=C/c1ccccc1` (stereo not given), the T/C runs as follows: under setting [7], 102 % of control; under setting [15], 102 % of control; under setting [16], 101 % of control.

Regarding `NC(=O)NC(CC(=O)O)C(=O)O` (stereo not given), the T/C by setting is: under setting [7], 92 % of control; under setting [15], 101 % of control; under setting [16], 106 % of control.

`Cc1ccc(S(=O)(=O)NCCN(CCNS(=O)(=O)c2ccc(C)cc2)S(=O)(=O)c2ccc(C)cc2)cc1`: the T/C (dose: 100.0 mg/kg/injection, schedule: Q01DX001 (ip), vehicle: saline with Tween-80) was 86 % of control; the T/C (dose: 200.0 mg/kg/injection, schedule: Q01DX001 (ip), vehicle: saline with Tween-80) is 86 % of control; the T/C (dose: 400.0 mg/kg/injection, schedule: Q01DX001 (ip), vehicle: saline with Tween-80) is 88 % of control.
